Test results from ChEMBL document CHEMBL4052704, “Optimization of a novel series of potent and orally bioavailable GPR119 agonists” (Bioorg Med Chem Lett, 2017).

Experiments:
[1] = AUC in mouse at 10 mg/kg, po; format: ADME, organism-based; conditions: in vivo
[2] = Clearance in human liver microsomes; format: ADME, microsome; conditions: read-out: CLH
[3] = Volume of distribution at steady state in mouse at 0.5 mg/kg, iv; format: ADME, organism-based; conditions: in vivo, read-out: Vdss
[4] = Cmax in mouse at 10 mg/kg, po; format: ADME, organism-based; set-up: dose 10 mg/kg, route oral; conditions: in vivo
[5] = target: T1, Glucose-dependent insulinotropic receptor (Homo sapiens, UniProt Q8TDV5); assay: Agonist activity at human GPR119 expressed in CHOK1 cells co-expressing CRE-luciferase incubated for 4 hrs by luciferase reporter gene assay; format: functional, cell-based
T1 sequence (Q8TDV5 whole entry): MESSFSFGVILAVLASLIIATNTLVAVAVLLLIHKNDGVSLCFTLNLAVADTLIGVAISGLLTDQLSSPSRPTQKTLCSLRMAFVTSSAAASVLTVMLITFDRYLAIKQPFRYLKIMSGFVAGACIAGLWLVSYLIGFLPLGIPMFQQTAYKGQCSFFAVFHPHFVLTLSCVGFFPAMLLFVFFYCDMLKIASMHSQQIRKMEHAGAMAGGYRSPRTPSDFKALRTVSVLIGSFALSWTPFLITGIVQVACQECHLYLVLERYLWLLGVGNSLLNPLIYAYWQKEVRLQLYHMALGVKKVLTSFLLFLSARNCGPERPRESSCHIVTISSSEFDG

[6] = Half life in mouse at 0.5 mg/kg, iv; format: ADME, organism-based; conditions: in vivo
Mus musculus [7] = assay: Reduction in blood glucose AUC in C57BL/6N mouse at 10 mg/kg dosed 25 mins before glucose challenge and measured over 120 mins post glucose […] by oral glucose tolerance test; format: functional; set-up: scale not given: the % may be the effect or the level left
[8] = Oral bioavailability in mouse at 10 mg/kg; format: ADME, organism-based; conditions: in vivo
[9] = Plasma clearance in mouse at 0.5 mg/kg, iv; format: ADME, organism-based
CHO-K1 = assay: Cytotoxicity in CHOK1 cells by CCK8 assay; format: cell-based; conditions: Cricetulus griseus
[10] = Clearance in mouse liver microsomes; format: ADME, microsome; conditions: read-out: CLH
[11] = target: T2, Glucose-dependent insulinotropic receptor (Homo sapiens) (UniProt Q8TDV5); assay: Agonist activity at human GPR119 expressed in CHOK1 cells co-expressing CRE-luciferase incubated for 4 hrs by luciferase reporter gene assay relative to 100 nM AR231453; format: functional, cell-based
T2 sequence (whole entry): T1 sequence (Q8TDV5 whole entry)

[12] = target: T1, Glucose-dependent insulinotropic receptor; assay: Agonist activity at human GPR119 expressed in HEK293 cells by luciferase reporter gene assay; format: cell-based
[13] = Drug metabolism in mouse liver microsomes assessed as CYP450-mediated metabolism of ethyl group; format: ADME
[14] = Drug metabolism in human liver microsomes assessed as CYP450-mediated metabolism of ethyl group; format: ADME
Mus musculus [15] = assay: Reduction in blood glucose AUC in C57BL/6N mouse at 30 mg/kg dosed 25 mins before glucose challenge and measured over 120 mins post glucose […] by oral glucose tolerance test; format: functional; set-up: scale not given: the % may be the effect or the level left

SMILES	microsomal CLint [2] [µL/min/mg]	EC50 ([5]; read-out: EC50) [nM]	microsomal CLint [10] [µL/min/mg]	Emax [11] [%]	also measured
CC(C)(C)OC(=O)N1CCC(c2c[nH]c3c(Nc4ccc(S(C)(=O)=O)cc4F)ncnc23)CC1	–	> 1000	–	9	–
CCCc1cnc(N2CCC(n3nnc4c(Nc5ccc(S(C)(=O)=O)cc5F)ncnc43)CC2)nc1	–	–	–	–	EC50 [12]: 82 nM
CC(C)(C)OC(=O)N1CCC(c2coc3c(N4c5ccc(S(C)(=O)=O)cc5CC4(C)C)ncnc23)CC1	–	–	–	–	EC50 [5]: Not Active
Cn1cc(C2CCN(C(=O)OC(C)(C)C)CC2)c2ncnc(Nc3ccc(S(C)(=O)=O)cc3F)c21	–	> 1000	–	3	–
CC(C)(C)OC(=O)N1CCC(c2coc3c(N4CCCc5cc(S(C)(=O)=O)ccc54)ncnc23)CC1	–	793	–	1	–
CS(=O)(=O)c1ccc2c(c1)CCN2c1ncnc2c(C3CCN(c4ncccn4)CC3)coc12	–	512	–	196	–
CN(c1ccc(S(C)(=O)=O)cc1F)c1ncnc2c(C3CCN(C(=O)OC(C)(C)C)CC3)coc12	–	> 1000	–	6	–
CC(C)(C)OC(=O)N1CCC(n2nnc3c(Nc4ccc(S(C)(=O)=O)cc4F)ncnc32)CC1	–	–	–	–	EC50 [12]: 19 nM
CC(O)c1cnc(N2CCC(c3coc4c(N5CCc6cc(S(C)(=O)=O)ccc65)ncnc34)CC2)nc1 (configuration not stated)	102	586	66	33	–
CC(C)(C)OC(=O)N1CCC(c2coc3c(N4CC(C)(C)c5cc(S(C)(=O)=O)ccc54)ncnc23)CC1	–	–	–	–	EC50 [5]: Not Active

The remaining molecules from weak to strong by EC50 ([5]; read-out: EC50), led by results:

microsomal CLint [2] [µL/min/mg]	EC50 ([5]; read-out: EC50) [nM]	microsomal CLint [10] [µL/min/mg]	Emax [11] [%]	SMILES	also measured
132	391	107	145	CS(=O)(=O)c1ccc2c(c1)CCN2c1ncnc2c(C3CCN(c4ncc(O)cn4)CC3)coc12	–
–	353	–	137	CC(C)(C)OC(=O)N1CCC(c2noc3c(Nc4ccc(S(C)(=O)=O)cc4F)ncnc23)CC1	–
255	310	189	186	COc1cnc(N2CCC(c3coc4c(N5CCc6cc(S(C)(=O)=O)ccc65)ncnc34)CC2)nc1	–
349	252	145	159	Cc1cnc(N2CCC(c3coc4c(N5CCc6cc(S(C)(=O)=O)ccc65)ncnc34)CC2)nc1	–
257	201	154	229	CS(=O)(=O)c1ccc2c(c1)CCN2c1ncnc2c(C3CCN(c4ncc(F)cn4)CC3)coc12	–
–	129	–	123	CC(C)(C)OC(=O)N1CCC(c2coc3c(Nc4ccc(S(C)(=O)=O)cc4F)ncnc23)CC1	Activity (Mus musculus [15]): 13%
–	79	–	82	CC(C)(C)OC(=O)N1CCC(c2csc3c(Nc4ccc(S(C)(=O)=O)cc4F)ncnc23)CC1	–
74	78	154	12	CC(=O)c1cnc(N2CCC(c3coc4c(N5CCc6cc(S(C)(=O)=O)ccc65)ncnc34)CC2)nc1	–
550	53	508	123	CC(C)(C)OC(=O)N1CCC(c2coc3c(N4CCc5cc(S(C)(=O)=O)ccc54)ncnc23)CC1	–
113	42	108	117	CS(=O)(=O)c1ccc2c(c1)CCN2c1ncnc2c(C3CCN(c4ncc(Cl)cn4)CC3)coc12	AUC [1]: 9390 ng·h/mL; Vd [3]: 2.3 L/kg; Cmax [4]: 2020 ng/mL; half-life [6]: 5.1 h; Activity (Mus musculus [7]): 33%; bioavailability [8]: 37%; clearance [9]: 6.5 mL/min/kg; IC50 (CHO-K1): > 10000 nM
412	41	187	154	CCc1cnc(N2CCC(c3coc4c(N5CCc6cc(S(C)(=O)=O)ccc65)ncnc34)CC2)nc1	Drug metabolism [13]: Metabolite_Detected; Drug metabolism [14]: Metabolite_Detected
